Results taken from patent publication US20260109715A1, “IMIDAZOPYRIDINE DERIVATIVES WITH BICYCLIC STRUCTURE” (PUBLIC UNIVERSITY CORPORATION YOKOHAMA CITY UNIVERSITY, priority 2022, published 2026).
pEC50, pIC50: −log10 of the molar value.

What was measured:
human SMG1 enzyme = human SMG1 enzyme (Homo sapiens, UniProt Q96Q15); experiment: Measurement of SMG1 kinase activity (ADP-Glo Kinase Assay); format: biochemical; conditions: purified human SMG1 enzyme 5 nM, Upf1 peptide substrate, ATP 4 μM; qAC50 synonymous with IC50; read-out: Test Example 1 ADP-Glo IC50
Chain of human SMG1 enzyme (Q96Q15 whole entry): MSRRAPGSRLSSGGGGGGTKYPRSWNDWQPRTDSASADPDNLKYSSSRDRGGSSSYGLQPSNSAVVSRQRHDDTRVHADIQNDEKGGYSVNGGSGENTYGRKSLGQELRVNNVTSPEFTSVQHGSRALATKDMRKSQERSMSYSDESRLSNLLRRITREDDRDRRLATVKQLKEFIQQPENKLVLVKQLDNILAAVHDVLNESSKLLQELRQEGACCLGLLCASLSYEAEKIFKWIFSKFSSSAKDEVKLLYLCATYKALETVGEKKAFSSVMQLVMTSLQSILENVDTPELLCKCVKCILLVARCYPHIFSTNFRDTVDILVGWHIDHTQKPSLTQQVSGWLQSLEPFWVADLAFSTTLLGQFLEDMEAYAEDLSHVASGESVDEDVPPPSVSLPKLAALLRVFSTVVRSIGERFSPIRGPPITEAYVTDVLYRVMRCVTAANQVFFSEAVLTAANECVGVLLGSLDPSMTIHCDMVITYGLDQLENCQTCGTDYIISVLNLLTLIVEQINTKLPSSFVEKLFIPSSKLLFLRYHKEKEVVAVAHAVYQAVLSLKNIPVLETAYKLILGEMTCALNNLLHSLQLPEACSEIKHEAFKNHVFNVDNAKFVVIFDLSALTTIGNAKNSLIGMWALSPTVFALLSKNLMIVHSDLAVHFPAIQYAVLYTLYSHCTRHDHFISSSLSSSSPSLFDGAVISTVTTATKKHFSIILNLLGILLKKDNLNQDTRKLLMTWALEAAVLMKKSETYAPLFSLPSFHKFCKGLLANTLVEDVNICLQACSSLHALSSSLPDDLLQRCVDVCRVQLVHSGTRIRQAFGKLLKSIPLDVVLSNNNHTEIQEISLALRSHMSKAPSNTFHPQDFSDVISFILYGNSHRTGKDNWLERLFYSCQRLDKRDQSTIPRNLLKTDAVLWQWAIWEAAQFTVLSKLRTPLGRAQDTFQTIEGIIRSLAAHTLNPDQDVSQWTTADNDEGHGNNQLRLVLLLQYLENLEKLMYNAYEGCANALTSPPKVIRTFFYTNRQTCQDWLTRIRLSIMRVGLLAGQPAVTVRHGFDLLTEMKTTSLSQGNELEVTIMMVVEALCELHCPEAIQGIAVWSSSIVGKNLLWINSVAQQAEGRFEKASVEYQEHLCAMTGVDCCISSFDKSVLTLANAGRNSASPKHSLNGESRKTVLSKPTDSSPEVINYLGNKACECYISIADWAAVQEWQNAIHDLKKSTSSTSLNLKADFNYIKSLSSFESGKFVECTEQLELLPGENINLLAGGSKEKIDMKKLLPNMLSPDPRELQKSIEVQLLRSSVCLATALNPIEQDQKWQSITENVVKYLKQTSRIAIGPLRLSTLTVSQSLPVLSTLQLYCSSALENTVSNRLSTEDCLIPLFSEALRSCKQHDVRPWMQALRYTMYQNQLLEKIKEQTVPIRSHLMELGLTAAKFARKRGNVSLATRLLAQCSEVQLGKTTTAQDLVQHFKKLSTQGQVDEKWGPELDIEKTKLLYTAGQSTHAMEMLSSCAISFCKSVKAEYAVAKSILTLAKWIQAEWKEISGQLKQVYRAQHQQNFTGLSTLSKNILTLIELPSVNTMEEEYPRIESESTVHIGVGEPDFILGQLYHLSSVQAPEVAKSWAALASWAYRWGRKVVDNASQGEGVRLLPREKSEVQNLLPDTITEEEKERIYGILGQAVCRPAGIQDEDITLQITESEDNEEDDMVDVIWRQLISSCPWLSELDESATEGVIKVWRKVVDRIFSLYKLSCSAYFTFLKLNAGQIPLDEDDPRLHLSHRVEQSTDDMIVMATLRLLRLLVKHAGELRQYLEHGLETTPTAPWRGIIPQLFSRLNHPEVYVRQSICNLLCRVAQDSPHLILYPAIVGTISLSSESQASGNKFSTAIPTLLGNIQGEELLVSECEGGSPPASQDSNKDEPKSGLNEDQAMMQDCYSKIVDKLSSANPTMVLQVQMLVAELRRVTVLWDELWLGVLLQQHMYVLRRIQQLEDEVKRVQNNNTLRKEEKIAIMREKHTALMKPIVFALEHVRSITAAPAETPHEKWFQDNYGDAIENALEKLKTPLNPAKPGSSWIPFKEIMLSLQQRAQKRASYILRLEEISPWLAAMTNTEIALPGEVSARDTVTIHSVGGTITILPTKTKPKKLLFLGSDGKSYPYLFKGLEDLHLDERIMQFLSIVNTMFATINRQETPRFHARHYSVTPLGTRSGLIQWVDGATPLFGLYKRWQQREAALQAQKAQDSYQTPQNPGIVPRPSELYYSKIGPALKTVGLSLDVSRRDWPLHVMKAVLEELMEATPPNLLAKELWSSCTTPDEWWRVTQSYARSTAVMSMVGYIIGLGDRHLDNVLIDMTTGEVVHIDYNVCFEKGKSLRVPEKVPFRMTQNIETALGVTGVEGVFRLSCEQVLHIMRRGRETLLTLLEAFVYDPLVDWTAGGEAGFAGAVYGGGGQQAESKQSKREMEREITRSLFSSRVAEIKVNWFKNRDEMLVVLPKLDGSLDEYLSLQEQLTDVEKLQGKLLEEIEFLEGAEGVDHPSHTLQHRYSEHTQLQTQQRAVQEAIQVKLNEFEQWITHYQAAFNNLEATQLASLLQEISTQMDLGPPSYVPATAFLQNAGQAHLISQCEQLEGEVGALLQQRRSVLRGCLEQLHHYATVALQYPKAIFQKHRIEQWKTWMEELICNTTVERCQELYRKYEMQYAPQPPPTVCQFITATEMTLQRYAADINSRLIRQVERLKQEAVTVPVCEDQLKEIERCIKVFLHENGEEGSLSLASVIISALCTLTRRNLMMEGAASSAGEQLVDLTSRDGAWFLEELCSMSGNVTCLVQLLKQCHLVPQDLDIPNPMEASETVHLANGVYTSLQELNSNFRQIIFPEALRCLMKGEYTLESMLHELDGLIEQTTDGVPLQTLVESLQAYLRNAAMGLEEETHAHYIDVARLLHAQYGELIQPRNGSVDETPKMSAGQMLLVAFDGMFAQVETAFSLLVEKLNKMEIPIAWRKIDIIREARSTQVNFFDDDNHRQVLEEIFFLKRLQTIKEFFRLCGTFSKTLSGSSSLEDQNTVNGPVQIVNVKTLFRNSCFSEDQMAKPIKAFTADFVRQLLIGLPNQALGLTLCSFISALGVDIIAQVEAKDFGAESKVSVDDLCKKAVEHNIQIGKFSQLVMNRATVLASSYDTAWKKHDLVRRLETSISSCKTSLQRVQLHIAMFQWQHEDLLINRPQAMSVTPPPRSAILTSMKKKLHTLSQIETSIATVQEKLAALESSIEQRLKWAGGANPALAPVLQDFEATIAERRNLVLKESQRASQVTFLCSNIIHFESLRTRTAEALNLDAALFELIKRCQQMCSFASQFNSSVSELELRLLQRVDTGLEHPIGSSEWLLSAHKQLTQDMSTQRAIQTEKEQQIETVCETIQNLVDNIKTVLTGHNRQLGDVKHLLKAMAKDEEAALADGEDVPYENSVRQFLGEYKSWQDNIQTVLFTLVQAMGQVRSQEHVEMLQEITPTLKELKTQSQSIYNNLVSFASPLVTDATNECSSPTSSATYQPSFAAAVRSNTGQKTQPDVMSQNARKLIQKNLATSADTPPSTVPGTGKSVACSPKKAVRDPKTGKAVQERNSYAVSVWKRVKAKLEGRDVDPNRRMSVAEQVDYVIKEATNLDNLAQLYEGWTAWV
How it was run: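 Purified human SMG1 (5 nM) preincubated with compound (1% DMSO) 15 min at room temperature in HEPES pH 7.5 buffer with MnCl2, then reacted 60 min with Upf1 peptide (8 μg/mL) and 4 μM ATP. ADP formed measured by ADP-Glo luminescence; IC50 by 4-parameter logistic fit, normalised to DMSO (0%) and enzyme-free (−100%) wells.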

[1] = tested on: Snhg1 transcript (NMD target gene) in EMT6 murine breast cancer cell line; experiment: Measurement of NMD inhibitory activity in cells (increase in Snhg1 transcript, real-time PCR); parameters: species or system mouse; conditions: Mus musculus, 6 hours treatment, concentration giving 1/2 of maximum Snhg1 fold change of positive control, read-out: Test Example 2 Cell-based Snhg1 EC50
How it was run: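 EMT6 cells treated with serially diluted compound (2% DMSO final) for 6 h; Snhg1 transcript quantified by real-time PCR (ΔΔCT, Tbp endogenous control, untreated wells set to 1). EC50 taken as concentration giving half the maximum fold change of a known NMD inhibitor positive control.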

[2] = tested on: Snhg1 transcript in tumor tissues of mice subcutaneously implanted with EMT6 murine breast cancer cell line; experiment: Evaluation of NMD inhibitory activity in vivo (Snhg1 transcript in EMT6 tumor tissue after oral administration); conditions: 10 mg/kg oral, 6 hours after administration, BALB/c mice
How it was run: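 BALB/c mice bearing subcutaneous EMT6 tumours (engraftment confirmed day 7) dosed orally; tumours excised 6 h post-dose. Snhg1 RNA quantified by qRT-PCR, ΔΔCT with Gapdh as endogenous control, expressed relative to 0.5% methylcellulose vehicle group set at 1.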

CCc1nc(Cl)cc2[nH]c(N3Cc4c(ccnc4-c4cnc(C5CC5)cc4OC)NC3=O)nc12.CS(=O)(=O)O [Example 154, 3-(6-chloro-4-ethyl-1H-imidazo[4,5-c]pyridin-2-yl)-5-(6-cyclopropyl-4-methoxypyridin-3-yl)-3,4-dihydropyrido[4,3-d]pyrimidin-2(1H)-one methanesulfonate]
pIC50 (human SMG1 enzyme): 9.28 | pEC50 [1]: 9.30 | Snhg1 fold change [2]: 10
